This is an account of results in patent US20140329797A1, “SUBSTITUTED OXADIAZOLYL PYRIDINONES AND OXADIAZOLYL PYRIDAZINONES AS HIF INHIBITORS” (Bayer Intellectual Property GmbH, priority 2011, published 2014).

Usually IC50 stands for the concentration that gives 50% inhibition. A lower IC50 goes with greater potency.

This test concerns HCT 116 cells transfected with a luciferase reporter under the control of an HIF-responsive sequence. Briefly: HIF-luciferase assay. The format is cell-based. The settings on record: Homo sapiens; HCT 116 HIF-luciferase reporter cells, hypoxia chamber (1% O2), 24 h; in some cases means of up to four individual determinations. As to the method: B-1. HIF-Luciferase Assay
HCT 116 cells were transfected in a stable manner with a plasmid which contained a luciferase reporter under the control of an HIF-responsive sequence. These cells were sown in microtitre plates [20000 cells/cavity in RPMI 1640 medium with 10% foetal calf serum (FCS) and 100 μg/ml of hygromycin]. Incubation was carried out overnight under standard conditions (5% CO2, 21% O2, 37° C., moistened). The following morning the cells were incubated with various concentrations of the test substances (0-10 μmol/l) in a hypoxia chamber (1% O2). After 24 h, Bright Glo reagent (Promega, Wisconsin, USA) was added in accordance with the manufacturer's instructions, and after 5 min the luminescence was measured. Cells which were incubated under normoxia served as background controls.
(A reporter such as luciferase makes a cellular process visible.)
Molecule `CC(=O)OC1(c2cccc(Cn3cc(-c4nc(-c5ccc(OC(F)(F)F)cc5)no4)ccc3=O)c2)CC1` [Example 40, 1-(3-{[2-Oxo-5-{3-[4-(trifluoromethoxy)phenyl]-1,2,4-oxadiazol-5-yl}pyridin-1(2H)-yl]methyl}phenyl)cyclopropyl acetate] showed an IC50 of 2.5 nM.

`CC(C)(O)Cc1cccc(Cn2cc(-c3nc(-c4ccc(OC(F)(F)F)cc4)no3)ccc2=O)c1` [Example 41, 1-[3-(2-Hydroxy-2-methylpropyl)benzyl]-5-{3-[4-(trifluoromethoxy)phenyl]-1,2,4-oxadiazol-5-yl}pyridin-2(1H)-one] had an IC50 of 5 nM.

Consider `CC(C)(O)Cc1cccc(Cn2cc(-c3nc(-c4ccc(C(C)(C)C(F)(F)F)cc4)no3)ccc2=O)c1` [Example 42, 1-[3-(2-Hydroxy-2-methylpropyl)benzyl]-5-{3-[4-(1,1,1-trifluoro-2-methylpropan-2-yl)phenyl]-1,2,4-oxadiazol-5-yl}pyridin-2(1H)-one], for which the midpoint of inhibition, the IC50, lay at 8 nM.

`O=c1ccc(-c2nc(-c3ccc(OC(F)(F)F)cc3)no2)cn1Cc1cccc(C2(CO)CC2)c1` [Example 43, 1-{3-[1-(Hydroxymethyl)cyclopropyl]benzyl}-5-{3-[4-(trifluoromethoxy)phenyl]-1,2,4-oxadiazol-5-yl}pyridin-2(1H)-one] gave an IC50 of 10 nM.

Consider `CC(C)(c1ccc(-c2noc(-c3ccc(=O)n(Cc4cccc(C5(CO)CC5)c4)c3)n2)cc1)C(F)(F)F` [Example 44, 1-{3-[1-(Hydroxymethyl)cyclopropyl]benzyl}-5-{3-[4-(1,1,1-trifluoro-2-methylpropan-2-yl)phenyl]-1,2,4-oxadiazol-5-yl}pyridin-2(1H)-one], for which the IC50 came out at 15 nM.

`N#CC1CCN(c2cc(Cn3cc(-c4nc(-c5ccc(OC(F)(F)F)cc5)no4)ccc3=O)ccn2)CC1` [Example 45, 1-(4-{[2-oxo-5-{3-[4-(trifluoromethoxy)phenyl]-1,2,4-oxadiazol-5-yl}pyridin-1(2H)-yl]methyl}pyridin-2-yl)piperidine-4-carbonitrile] yielded an IC50 of 5 nM.

Molecule `CN1CCN(c2cc(Cn3cc(-c4nc(-c5ccc(SC(F)(F)F)cc5)no4)ccc3=O)ccn2)CC1` [Example 47, 1-{[2-(4-Methylpiperazin-1-yl)pyridin-4-yl]methyl}-5-(3-{4-[(trifluoromethyl)sulphanyl]phenyl}-1,2,4-oxadiazol-5-yl)pyridin-2(1H)-one] had an IC50 of 40 nM.

`CN1CCN(c2cc(Cn3cc(-c4nc(-c5ccc(C6(C(F)(F)F)CC6)cc5)no4)ccc3=O)ccn2)CC1` [Example 48, 1-{[2-(4-Methylpiperazin-1-yl)pyridin-4-yl]methyl}-5-(3-{4-[1-(trifluoromethyl)cyclopropyl]phenyl}-1,2,4-oxadiazol-5-yl)pyridin-2(1H)-one] had an IC50 of 50 nM.

The molecule `O=c1ccc(-c2nc(-c3ccc(OC(F)(F)F)cc3)no2)cn1Cc1ccnc(N2CCN(CC(F)(F)F)CC2)c1` [Example 49, 1-({2-[4-(2,2,2-Trifluoroethyl)piperazin-1-yl]pyridin-4-yl}methyl)-5-{3-[4-(trifluoromethoxy)phenyl]-1,2,4-oxadiazol-5-yl}pyridin-2(1H)-one] gave an IC50 of 3 nM.

Take `O=c1ccc(-c2nc(-c3ccc(OC(F)(F)F)cc3)no2)cn1Cc1ccnc(N2CCN(C3CC3)CC2)c1` [Example 51, 1-{[2-(4-Cyclopropylpiperazin-1-yl)pyridin-4-yl]methyl}-5-{3-[4-(trifluoromethoxy)phenyl]-1,2,4-oxadiazol-5-yl}pyridin-2(1H)-one]: the IC50 is 2 nM.

As to `O=c1ccc(-c2nc(-c3ccc(SC(F)(F)F)cc3)no2)cn1Cc1ccnc(N2CCN(C3CC3)CC2)c1` [Example 52, 1-{[2-(4-Cyclopropylpiperazin-1-yl)pyridin-4-yl]methyl}-5-(3-{4-[(trifluoromethyl)sulphanyl]phenyl}-1,2,4-oxadiazol-5-yl)pyridin-2(1H)-one], the IC50 came out at 5 nM.

In the case of `CC(C)(c1ccc(-c2noc(-c3ccc(=O)n(Cc4ccnc(N5CCN(C6CC6)CC5)c4)c3)n2)cc1)C(F)(F)F` [Example 53, 1-{[2-(4-Cyclopropylpiperazin-1-yl)pyridin-4-yl]methyl}-5-{3-[4-(1,1,1-trifluoro-2-methylpropan-2-yl)phenyl]-1,2,4-oxadiazol-5-yl}pyridin-2(1H)-one], 4 nM corresponded to half-maximal inhibition (IC50).

`O=c1ccc(-c2nc(-c3ccc(C4(C(F)(F)F)CC4)cc3)no2)cn1Cc1ccnc(N2CCN(C3CC3)CC2)c1` [Example 54, 1-{[2-(4-Cyclopropylpiperazin-1-yl)pyridin-4-yl]methyl}-5-(3-{4-[1-(trifluoromethyl)cyclopropyl]phenyl}-1,2,4-oxadiazol-5-yl)pyridin-2(1H)-one]: the IC50 came out at 4 nM.

On to `CC(=O)N1CCN(c2cc(Cn3cc(-c4nc(-c5ccc(SC(F)(F)F)cc5)no4)ccc3=O)ccn2)CC1` [Example 55, 1-{[2-(4-Acetylpiperazin-1-yl)pyridin-4-yl]methyl}-5-(3-{4-[(trifluoromethyl)sulphanyl]phenyl}-1,2,4-oxadiazol-5-yl)pyridin-2(1H)-one], for which the IC50 was 20 nM.

In turn, `CNc1ccc(Cn2cc(-c3nc(-c4ccc(OC(F)(F)F)cc4)no3)ccc2=O)cn1` [Example 59, 1-{[6-(Methylamino)pyridin-3-yl]methyl}-5-{3-[4-(trifluoromethoxy)phenyl]-1,2,4-oxadiazol-5-yl}pyridin-2(1H)-one] registered an IC50 of 12.5 nM.

`CNc1ccc(Cn2cc(-c3nc(-c4ccc(C(C)(C)C(F)(F)F)cc4)no3)ccc2=O)cn1` [Example 60, 1-{[6-(Methylamino)pyridin-3-yl]methyl}-5-{3-[4-(1,1,1-trifluoro-2-methylpropan-2-yl)phenyl]-1,2,4-oxadiazol-5-yl}pyridin-2(1H)-one]: half-maximal inhibition (IC50) required 20 nM.

Take `O=c1ccc(-c2nc(-c3ccc(OC(F)(F)F)cc3)no2)cn1Cc1ccc(NCCCO)nc1` [Example 63, 1-({6-[(3-Hydroxypropyl)amino]pyridin-3-yl}methyl)-5-{3-[4-(trifluoromethoxy)phenyl]-1,2,4-oxadiazol-5-yl}pyridin-2(1H)-one]: the IC50 was 30 nM.

As for `Cc1ccc(Cn2nc(-c3nc(-c4ccc(OC(F)(F)F)cc4)no3)ccc2=O)cc1` [Example 65, 2-(4-Methylbenzyl)-6-{3-[4-(trifluoromethoxy)phenyl]-1,2,4-oxadiazol-5-yl}pyridazin-3(2H)-one], the IC50 worked out at 200 nM.

`N#CC1CCN(c2cccc(Cn3nc(-c4nc(-c5ccc(OC(F)(F)F)cc5)no4)ccc3=O)c2)CC1` [Example 66, 1-(3-{[6-oxo-3-{3-[4-(trifluoromethoxy)phenyl]-1,2,4-oxadiazol-5-yl}pyridazin-1(6H)-yl]methyl}phenyl)piperidine-4-carbonitrile] gave an IC50 of 1.5 nM.

`CNC(=O)c1cccc(Cn2nc(-c3nc(-c4ccc(C(C)(C)C(F)(F)F)cc4)no3)ccc2=O)c1` [Example 70, N-Methyl-3-{[6-oxo-3-{3-[4-(1,1,1-trifluoro-2-methylpropan-2-yl)phenyl]-1,2,4-oxadiazol-5-yl}pyridazin-1(6H)-yl]methyl}benzamide] showed an IC50 of 60 nM.

In turn, `CC(C)(c1ccc(-c2noc(-c3ccc(=O)n(Cc4cccc(C(=O)NCCCO)c4)n3)n2)cc1)C(F)(F)F` [Example 73, N-(3-Hydroxypropyl)-3-{[6-oxo-3-{3-[4-(1,1,1-trifluoro-2-methylpropan-2-yl)phenyl]-1,2,4-oxadiazol-5-yl}pyridazin-1(6H)-yl]methyl}benzamide] returned an IC50 of 50 nM.
